Experimental findings from patent US9956171B2, “Liquid inhalation formulation comprising RPL554” (VERONA PHARMA PLC, priority 2014, dated 2018) are described below.

This data set is described as follows: Particle size distribution of micronized RPL554 by laser diffraction (Malvern Spraytec). In kind it is physicochemical. The source says:
The technique used to measure the Dv50 value is typically laser diffraction. For instance, the RPL554 particles typically have a particle size distribution with a Dv50 value of from about 0.2 μm to about 5 μm as measured by laser diffraction. The particle size distribution analysis can be performed by laser diffraction using the Malvern Spraytec in conjunction with a wet dispersion cell. Typically, the instrument parameters for the Malvern Spraytec are as follows: • particle—standard opaque particle; • refractive index Particle—1.50; • refractive index (imaginary)—0.50; • density of particle—1.00; • refractive index of dispersant—1.33; • controller unit—1000 RPM; • measurement type—timed; • initial sampling time—30 s; • obscuration—20%-30%; • dispersant—1% Polysorbate 20 in deionised water.
The particle size distribution of a sample of micronized RPL554 suitable for use in nebulized formulations was evaluated using laser diffraction. The particle size distribution analysis was performed by laser diffraction using the Malvern Spraytec in conjunction with a wet dispersion cell.

As to `COc1cc2c(cc1OC)-c1c/c(=N\c3c(C)cc(C)cc3C)n(CCNC(N)=O)c(=O)n1CC2` [RPL554, 9,10-Dimethoxy-2-(2,4,6-trimethylphenylimino)-3-(N-carbamoyl-2-aminoethyl)-3,4,6,7-tetrahydro-2H-pyrimido[6,1-a]isoquinolin-4-one], the Dv10 is 0.69 μm, the Dv50 is given as 1.35 μm and the Dv90 is recorded as 2.5 μm.
